Results on one compound are retold here after patent publication US20160051665A1, “INDUCTION OF IMMUNE RESPONSE” (priority 2010, published 2016).

The nature of data set [1]: observation of woodchucks for drug-related toxicity. It counts as in vivo, woodchuck. As to conditions: 100 mg/kg orally, weighed bi-weekly, observed daily.
The test system of data set [2] is woodchuck hepatitis virus (WHV). Description: serum WHV DNA by dot blot hybridization in chronic WHV carrier woodchucks. It counts as in vivo. As to conditions: for WHV DNA, Av(range): serum. The method, then: All experimental procedures involving woodchucks were performed under protocols approved by the Cornell University Institutional Animal Care and Use Committee. Woodchucks were born to WHV-negative females in environmentally controlled laboratory animal facilities and inoculated at 3 days of age with 5 million infectious doses of a standardized WHV inoculum (23). Woodchucks were selected as chronic WHV carriers based on persistent detection of WHV surface antigen (WHsAg) and WHV DNA in serum prior to treatments. All animals were free of HCC at the beginning of the study as determined by hepatic ultrasound examination and normal serum activity of γ-glutamyl-transferase (GGT).
Twenty adult chronically infected woodchucks were stratified by age, sex, body weight, serum viral load, and serum GGT activity into four treatment groups of five animals each. Drug was administered orally at 100 mg/kg (in sterile water), chosen after an initial dose finding trial. […] The subunit vaccine consisted of 22-nm WHsAg particles, purified by zonal ultracentrifugation from serum of WHV7P1-infected WHV carriers (24), inactivated with formalin, and adsorbed onto alum. Prior to alum adsorption, vaccine was tested in naïve, WHV-susceptible animals and no residual virus was detected. Purified WHsAg was not pretreated with enzymes that remove preS sequences.
Blood samples were obtained for WHV DNA analysis and serological testing while animals were under general anesthesia (ketamine 50 mg/kg and xylazine 5 mg/kg intramuscularly). Samples were taken prior to drug administration on the first day of treatment and at the indicated time points.
Serum WHV DNA was measured quantitatively by dot blot hybridization (assay sensitivity, ≧1.0×10^7 WHV genome equivalents per ml [WHVge/ml]) (25). Serum WHsAg, antibodies to WHV core antigen (anti-WHc), and WHV surface antigen (anti-WHs) were determined with WHV-specific enzyme immunoassays (26). Serum biochemical measurements included serum GGT, alkaline phosphatase (ALP), and marker of hepatocellular injury alanine aminotransferase (ALT), aspartate aminotransferase (AST), and sorbitol dehydrogenase (SDH) (25).
Woodchucks chronically infected with WHV experienced significant immunological responses to envelope proteins following immunization with WHsAg-containing vaccines, especially in the context of low viral and antigen loads following treatment with an effective antiviral agent, 1-(2-fluoro-5-methyl-beta-L-arabinofuranosyl)-uracil (L-FMAU) (29, 35). Since BuCas treatment might be expected to reduce the amount of MHBs in the circulation and/or alter its immunological profile, the response to BuCas administration along with WHsAg vaccine was investigated. […] Animals were scored as positive if cells proliferated above the cut-off value of 2: 3.1. […]

The target in the next data set is T1, glucosidase I (Homo sapiens, UniProt Q13724).
T1 sequence (Q13724 1-837): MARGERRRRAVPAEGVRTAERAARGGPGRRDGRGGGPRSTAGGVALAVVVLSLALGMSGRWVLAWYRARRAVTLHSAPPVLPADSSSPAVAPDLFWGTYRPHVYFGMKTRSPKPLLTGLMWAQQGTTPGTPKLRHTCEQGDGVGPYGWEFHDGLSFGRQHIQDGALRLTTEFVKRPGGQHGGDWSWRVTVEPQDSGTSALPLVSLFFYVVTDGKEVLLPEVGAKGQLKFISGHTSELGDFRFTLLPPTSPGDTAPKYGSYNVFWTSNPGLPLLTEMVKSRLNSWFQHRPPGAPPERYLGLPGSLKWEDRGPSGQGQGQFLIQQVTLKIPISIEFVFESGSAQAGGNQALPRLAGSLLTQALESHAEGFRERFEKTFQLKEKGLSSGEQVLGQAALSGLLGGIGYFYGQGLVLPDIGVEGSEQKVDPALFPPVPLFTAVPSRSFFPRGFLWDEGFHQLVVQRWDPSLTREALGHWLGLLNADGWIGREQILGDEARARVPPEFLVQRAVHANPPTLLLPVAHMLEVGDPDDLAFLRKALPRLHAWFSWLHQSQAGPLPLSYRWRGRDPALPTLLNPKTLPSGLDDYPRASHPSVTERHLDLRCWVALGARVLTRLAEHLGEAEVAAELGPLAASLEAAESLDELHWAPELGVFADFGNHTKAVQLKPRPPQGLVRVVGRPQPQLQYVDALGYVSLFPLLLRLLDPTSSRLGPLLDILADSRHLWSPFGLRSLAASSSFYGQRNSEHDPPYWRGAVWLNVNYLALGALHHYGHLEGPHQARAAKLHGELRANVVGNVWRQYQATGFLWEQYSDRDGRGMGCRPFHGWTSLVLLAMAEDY
The following applies: cited from earlier work.

SMILES strings stand for the structures.

For `CCCC(=O)O[C@H]1CN2CC[C@H](O)[C@@H]2[C@@H](O)[C@H]1O` [BuCas, 6-O-butanoyl castanospermine], the drug-related toxicity entry in data set [1] was “no evidence of drug-related toxicity was seen”. Besides, the “viremia, in words” value in data set [2] (chronic WHV carrier woodchucks, all times tested) is given as “not altered significantly”. In data set [2] (drug treated chronic WHV carrier woodchucks), the “antiviral response in woodchucks” value was “no detectable antiviral response”. Moreover, the “WHV DNA, Av(range)” value was 2.7(.4-7.0) genome equivalents (×10^10) in data set [2] (week 0 (baseline), chronic WHV carrier woodchucks) and 1.9(.9-4.8) genome equivalents (×10^10) in data set [2] (week 10 (4 weeks after first vaccination), UD = <E07 GE, detection limit of dot blot hybridization). Further, the “potency as inhibitor of glucosidase I relative to deoxynojirimycin” value at glucosidase I is on record as “more potent inhibitors of glucosidase I than deoxynojirimycin”.
